Source: paper PMC11077815, “Synthesis and antitumor activity of dolutegravir derivatives bearing 1,2,3-triazole moieties” (BMC Chemistry, 2024)

Tests used:
[1] = test system: PC-9; assay: Cellular ROS measurement (DCFH-DA), PC-9; assay type: cell-based, Human; settings: PC-9, 5 µM and 10 µM, 24 h, DCFH-DA staining
Method: Reactive oxygen species could induce cell death and suppress cell growth and proliferation. To assess the role of compounds 9e and 9p in ROS generation, different cancer cell lines were treated with 9e or 9p for 24 h. DCFDA was used to stain cells and ROS was detected with fluorescent microscope.
PC-9 and H460 cells were cultured in 96-well plates in a density of 5 × 10^3 cells/well. Different concentrations (0, 5 and 10 µM) of 9e or 9p were added to cells respectively for 24 h. After treatment, cells were stimulated with 10 µM DCFH-DA for 30 min at 37 °C, then observed and photographed using a fluorescent microscope.

[2] = test system: CyclinD; assay: Western blot of CyclinD in PC-9 cells; assay type: cell-based, Human; settings: PC-9, 0, 2, 4, 8 µM, 48 h
Description: (§1) To determine the role of compounds 9e and 9p on regulating the development of cell proliferation, expressions of key proteins which were involved in cell growth progresses such as autophagy, apoptosis, cell cycle and DNA damage were examined. Ubiquitin like molecule light chain 3 (LC3) is a key marker of autophagy. […] Caspase3, which is one of the key proteins in regulating apoptosis, however, was not changed in tumor cells after treated with 9e or 9p. Cell cycle regulation proteins such as CyclinD, CyclinE or β-catenin were also not affected when PC-9 was treated with 9e or 9p. Further, H2AX variant histone (γ-H2AX), which was responsible for DNA damage, was also not affected when PC-9 were treated with 9e or 9p.
(§2) Protein expression levels were measured by western blot. PC-9 cells were cultured in 12-well plates and different concentrations (0, 2, 4, 8µM) of 9e and 9p were added for 48 h. Proteins were extracted from whole cells using radioimmunoprecipitation assay (RIPA). Buffer containing protease/phosphatase inhibitor cocktail (CST). Sodium dodecyl sulfate (10-15%) polyacrylamide gel electrophoresis and nitrocellulose membranes (Millipore) were used to separate and collect proteins. Antibodies used include, LC3 (3868s, CST), Caspase3 (9662, CST), cyclin D (2922s, CST), cyclin E (20808s, CST), γ-H2AX (9718s, CST), and β-actin (4967s, CST).

[3] = test system: H460; assay: CCK8 cell viability assay, H460; assay type: cell-based, Human; settings: for Cell viability (100%): H460, 20 µM, 48 h, CCK8, control = 100%; for IC50: H460, 48 h, CCK8, mean ± SE
Method: (§3) At first, CCK8 assay was carried out to evaluate the anti-proliferative activity of dolutegravir-1,2,3-triazole derivatives against different cancer cell lines. The results of cell viability of three lung cancer cell lines A549, PC-9 and H460 in the presence of compounds 9 and 10 are summarized in Table 2. Cells were treated with different compounds at the concentration of 20 µM for 48 h. […] Human lung cancer cell lines A549, PC-9 and H460 were all obtained from ATCC. Cells were cultured in DMEM or RPMI 1640 medium containing 10% FBS and 1% penicillin/streptomycin at 37 °C with a 5% CO2-humidified atmosphere. CCK8 assay was used to measure cell viability. Cells with a density of 1 × 10^4 cells/well were seeded on the 96-well plates. After adhesion, cells were treated with different diluted compounds or vehicle control DMSO and continue cultured for 48 h. Then, CCK8 reagent was added for one hour incubation at 37 °C with 5% of CO2. Absorbance was measured using a microplate spectrophotometer (Thermo) at 450 nm. The ratio of cell viability of control was taken as 100%. […] Then IC50 of the compounds were investigated using the prism statistical software.

[4] = test system: PC-9; assay: Plate clone formation assay, PC-9; assay type: cell-based, Human; settings: PC9, 0, 2, 4, 8, 16 and 32 µM, 48 h
Method: (§4) The plate clone formation experiments were also carried outto further confirm the effects of dolutegravir derivatives on cell proliferation. Compounds 9e and 9p with different concentrations (0, 2, 4, 8, 16 and 32 µM) were added to the cells.
(§5) PC-9 and H460 cells were seeded into 6-well plates at a density of 100–500 cells/well. After 10 days culture, cells were added with 9e or 9p at different concentrations (0, 2 µM, 4 µM, 8 µM, 16 µM, 32 µM) for 48 h. Then cells were fixed by 4% paraformaldehyde and stained by Giemsa dye. An optical microscope was used to photograph cells and count the clone numbers.

[5] = test system: H460; assay: Apoptosis assay (Annexin V-FITC/PI flow cytometry), H460; assay type: cell-based, Human; settings: 48 h
Method: (§6) Further, the effects of 9e and 9p on the apoptosis of tumor cells were studied to get details of the suppression of cell proliferation caused by these compounds. PC-9 and H460 cells treated with different concentrations of 9e or 9p were stained with Annexin V-FITC and PI, and the numbers of apoptosis cells were analyzed by the flow cytometry.
(§7) PC-9 and H460 cells were cultured in 6-well plates with a density of 3 × 10^5 cells/well. Different concentrations of 9e or 9p were added to cells for 48 h respectively. The concentrations were 0, 2, 4, and 8 µM for PC-9 cells and 0, 4, 8 and 16 µM for H460 cells. After treatment, Annexin V-FITC Apoptosis Detection Kit was used to determine the apoptotic ratio and FlowJo software v10 was used to analyze of the results.

[6] = test system: H460; assay: Plate clone formation assay, H460; assay type: cell-based, Human; settings: H460, 0, 2, 4, 8, 16 and 32 µM, 48 h
Method: as §4, §5

[7] = test system: Caspase3; assay: Western blot of Caspase3 in PC-9 cells; assay type: cell-based, Human; settings: PC-9, 0, 2, 4, 8 µM, 48 h
Description: as §1, §2

[8] = test system: PC-9; assay: Apoptosis assay (Annexin V-FITC/PI flow cytometry), PC-9; assay type: cell-based, Human; settings: 48 h
Method: as §6, §7

[9] = test system: HRM (Human Renal Mesangial) cell line; assay: CCK8 cell viability assay, HRM normal cells (toxicity control); assay type: cell-based; settings: for IC50: HRM normal human cells, 48 h, CCK8, mean ± SE
Method: Based on these preliminary results, compounds 9c, 9e, 9f, 9i, 9k, 9 L, 9p, 9q, 9t, 9u, 9v, 9w, 10c, 10e which were effective to most of the cell lines were chosen for the measurement of the half-maximal inhibitory concentration (IC50). […] HRM (Human Renal Mesangial) cell line was used as a control to study the toxicity of these compounds against normal human cells.
CCK8 assay was used to measure cell viability. Cells with a density of 1 × 10^4 cells/well were seeded on the 96-well plates. After adhesion, cells were treated with different diluted compounds or vehicle control DMSO and continue cultured for 48 h. Then, CCK8 reagent was added for one hour incubation at 37 °C with 5% of CO2. Absorbance was measured using a microplate spectrophotometer (Thermo) at 450 nm. The ratio of cell viability of control was taken as 100%. […] Then IC50 of the compounds were investigated using the prism statistical software.

[10] = test system: LC3; assay: Western blot of LC3 in PC-9 cells; assay type: cell-based, Human; settings: PC-9, 0, 2, 4, 8 µM, 48 h
Description: as §1, §2

[11] = test system: A549; assay: CCK8 cell viability assay, A549; assay type: cell-based, Human; settings: for Cell viability (100%): A549, 20 µM, 48 h, CCK8, control = 100%; for IC50: A549, 48 h, CCK8, mean ± SE
Method: as §3

In the case of `COc1c2n(cc(C(=O)Nc3cccc(-c4cn(-c5cccc(C(F)(F)F)c5)nn4)c3)c1=O)C[C@@H]1OCC[C@@H](C)N1C2=O` [Compound 9p], the ROS generation [1] is reported as “significantly increased”, the CyclinD expression [2] is reported as “not affected” and the “Cell viability (100%)” value [3] is reported as 5.63%. For the same compound, the IC50 [3] was 10.7 ± 0.48 µM, the “plate clone formation (cell proliferation)” value (shortened to “plate clone formation”) [4] was “anti-proliferative activity against cell lines PC9 and H460 in a dose-dependent manner” and the cell apoptosis ([5]; H460, 4 µM, 8 µM and 16 µM) was “significantly increased apoptosis”. For the same compound, the “plate clone formation” value [6] was “anti-proliferative activity against cell lines PC9 and H460 in a dose-dependent manner”, the Caspase3 expression [7] was “not changed” and the cell apoptosis ([8]; PC-9, 2 µM or 4 µM) was “little influence”. The cell apoptosis ([8]; PC-9, 8 µM) was “significant effects on cell apoptosis”, the IC50 [9] was 35.6 ± 10.8 µM and the “expression of LC3” value [10] was “significantly increased”. For the same compound, the “Cell viability (100%)” value [11] was 10.85% and the IC50 [11] was 13 ± 0.32 µM.

With `COc1c2n(cc(C(=O)Nc3cccc(-c4cn(-c5cccc([N+](=O)[O-])c5C)nn4)c3)c1=O)C[C@@H]1OCC[C@@H](C)N1C2=O` [Compound 9e] the ROS generation [1] was “significantly increased”, the CyclinD expression [2] was “not affected” and the “Cell viability (100%)” value [3] was 30.94%. For the same compound, the IC50 [3] was 11.8 ± 2.31 µM, the “plate clone formation” value [4] was “anti-proliferative activity against cell lines PC9 and H460 in a dose-dependent manner” and the cell apoptosis ([5]; H460, 8 µM and 16 µM) was “significant increased apoptosis”. For the same compound, the “plate clone formation” value [6] was “anti-proliferative activity against cell lines PC9 and H460 in a dose-dependent manner”, the Caspase3 expression [7] was “not changed” and the cell apoptosis ([8]; PC-9, 2 µM or 4 µM) was “little influence”. The cell apoptosis ([8]; PC-9, 8 µM) was “significant effects on cell apoptosis”, the “toxicity against normal cells” value ([9]; HRM cells) was “low toxicity against normal cells” and the IC50 [9] was > 50 µM. The “expression of LC3” value [10] was “significantly increased”, the “Cell viability (100%)” value [11] was 9.14% and the IC50 [11] was 8.72 ± 0.11 µM.
